System: primary differentiating osteoblasts
Test: Osteoblast differentiation assay (ALP activity) in primary differentiating osteoblasts treated with etomoxir
Format: cell-based, human
Details: 100 μM etomoxir between day 2 and day 5 of differentiation
Description: FIG. 9A-9E—3q21.1 haplotype affects lipid oxidation in adipocytes and osteoblasts. (9A) Osteoblast alkaline phosphatase (ALP) activity in primary differentiating osteoblasts treated with 100 μM etomoxir (carnitine palmitoyltransferase 1 antagonist) or negative control. Assays were performed in cells from 18 heterozygous individuals (haplotypes 1/2) and 23 homozygous individuals (haplotypes 1/1) and differentiating osteoblasts were treated between day 2 and day 5 of differentiation. (9B) Oxidation of [14C]palmitate (0.5 mM) to 14CO2 in primary differentiating osteoblasts treated with 100 μM etomoxir (carnitine palmitoyltransferase 1 antagonist) or negative control. […] Seahorse XF24 Flux analyzer was performed at each time point and contribution of ATP generation was calculated from glycolysis vs. oxidative phosphorylation. […] Isogenic lines were differentiated to osteoblasts after undergoing clonal expansion, and marker gene expression for osteoblast differentiation was measured by qPCR. […] Isogenic lines were differentiated to adipocytes after undergoing clonal expansion, and catecholamine-stimulated lipolysis was measured. […]
Culture and differentiation of primary human AMSCs. […] Additionally, small quantities of the original liposuction material would be aliquoted into T-25 flasks at a 1:1 ratio of fat to medium as controls to check for contamination. […]

SMILES: CCOC(=O)[C@@]1(CCCCCCOc2ccc(Cl)cc2)CO1 [etomoxir]
- osteoblast differentiation (ALP activity) (haplotype 1 homozygotes (n=23), p-value=0.005): dramatic reduction in osteoblast differentiation
- osteoblast differentiation (ALP activity) (heterozygotes haplotypes 1/2 (n=18)): no effect

— patent publication US12644100B2, “Methods for treating metabolic disorders by targeting ADCY5” (THE BROAD INSTITUTE, INC., priority 2019, dated 2026)
